PubChem BioAssay AID1918954 (Molecular Pharmacology Branch, DTP, NCI, 2023)

System: MDA-MB-468 complex spheroids with HUVEC/MSC, viability
Test: Anticancer human tumor MDA-MB-468 cell line growth inhibition;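 further: spheroids exposed to agents for seven days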;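 on viability, T/C: 100% = DMSO vehicle control viability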
Conditions: for IC50: curve of first compound; for viability, T/C: stronger effect = lower value
How it was run: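 Drug combinations with the LSD1 inhibitor iadademstat tested on tumor cells co-cultured as spheroids with endothelial cells and mesenchymal stem cells. Concentrations descended in half-log increments from clinical Cmax or 10 microM.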

[1] = second compound 0.1 µM, first compound 0.00949 µM
[2] = second compound 0.1 µM, first compound 0.03 µM
[3] = second compound 0.1 µM, first compound 0.0949 µM
[4] = second compound 0.1 µM, first compound 0.3 µM
[5] = second compound 0.1 µM, first compound 0.949 µM
[6] = second compound 0.1 µM, first compound 3 µM
[7] = second compound 0.316 µM, first compound 0.00949 µM
[8] = second compound 0.316 µM, first compound 0.03 µM
[9] = second compound 0.316 µM, first compound 0.0949 µM
[10] = second compound 0.316 µM, first compound 0.3 µM
[11] = second compound 0.316 µM, first compound 0.949 µM
[12] = second compound 0.316 µM, first compound 3 µM
[13] = second compound 1 µM, first compound 0.00949 µM
[14] = second compound 1 µM, first compound 0.03 µM
[15] = second compound 1 µM, first compound 0.0949 µM
[16] = second compound 1 µM, first compound 0.3 µM
[17] = second compound 1 µM, first compound 0.949 µM
[18] = second compound 1 µM, first compound 3 µM
[19] = second compound 3.16 µM, first compound 0.00949 µM
[20] = second compound 3.16 µM, first compound 0.03 µM
[21] = second compound 3.16 µM, first compound 0.0949 µM
[22] = second compound 3.16 µM, first compound 0.3 µM
[23] = second compound 3.16 µM, first compound 0.949 µM
[24] = second compound 3.16 µM, first compound 3 µM
[25] = second compound 10 µM, first compound 0.00949 µM
[26] = second compound 10 µM, first compound 0.03 µM
[27] = second compound 10 µM, first compound 0.0949 µM
[28] = second compound 10 µM, first compound 0.3 µM
[29] = second compound 10 µM, first compound 0.949 µM
[30] = second compound 10 µM, first compound 3 µM

Cn1ncnc1C1c2n[nH]c(=O)c3cc(F)cc(c23)NC1c1ccc(F)cc1 (stereo not given) + NC1CCC(NC2CC2c2ccccc2)CC1
IC50 (second compound 0.1 µM): 90.3 nM
IC50 (second compound 0.316 µM): > 100 nM
IC50 (second compound 1 µM): > 100 nM
IC50 (second compound 3.16 µM): > 100 nM
IC50 (second compound 10 µM): 24 nM
viability, T/C (second compound 0.1 µM, first compound 0.000316 µM): 74.5%
viability, T/C (second compound 0.1 µM, first compound 0.001 µM): 81.9%
viability, T/C (second compound 0.1 µM, first compound 0.00316 µM): 81.3%
viability, T/C (second compound 0.1 µM, first compound 0.01 µM): 71.8%
viability, T/C (second compound 0.1 µM, first compound 0.0316 µM): 70.8%
viability, T/C (second compound 0.1 µM, first compound 0.1 µM): 47.8%
viability, T/C (second compound 0.316 µM, first compound 0.000316 µM): 94.9%
viability, T/C (second compound 0.316 µM, first compound 0.001 µM): 84.6%
viability, T/C (second compound 0.316 µM, first compound 0.00316 µM): 91.5%
viability, T/C (second compound 0.316 µM, first compound 0.01 µM): 76.9%
viability, T/C (second compound 0.316 µM, first compound 0.0316 µM): 70.8%
viability, T/C (second compound 0.316 µM, first compound 0.1 µM): 49.5%
viability, T/C (second compound 1 µM, first compound 0.000316 µM): 65.5%
viability, T/C (second compound 1 µM, first compound 0.001 µM): 85%
viability, T/C (second compound 1 µM, first compound 0.00316 µM): 80.4%
viability, T/C (second compound 1 µM, first compound 0.01 µM): 65.7%
viability, T/C (second compound 1 µM, first compound 0.0316 µM): 60.4%
viability, T/C (second compound 1 µM, first compound 0.1 µM): 50.3%
viability, T/C (second compound 3.16 µM, first compound 0.000316 µM): 80.6%
viability, T/C (second compound 3.16 µM, first compound 0.001 µM): 86.9%
viability, T/C (second compound 3.16 µM, first compound 0.00316 µM): 72.7%
viability, T/C (second compound 3.16 µM, first compound 0.01 µM): 62.7%
viability, T/C (second compound 3.16 µM, first compound 0.0316 µM): 60.3%
viability, T/C (second compound 3.16 µM, first compound 0.1 µM): 54.7%
viability, T/C (second compound 10 µM, first compound 0.000316 µM): 67.5%
viability, T/C (second compound 10 µM, first compound 0.001 µM): 57%
viability, T/C (second compound 10 µM, first compound 0.00316 µM): 62.4%
viability, T/C (second compound 10 µM, first compound 0.01 µM): 56.4%
viability, T/C (second compound 10 µM, first compound 0.0316 µM): 46.7%
viability, T/C (second compound 10 µM, first compound 0.1 µM): 40.3%

NS(=O)(=O)OCC1CC(n2ccc3c(NC4CCc5ccccc54)ncnc32)CC1O (stereo not given) + NC1CCC(NC2CC2c2ccccc2)CC1
IC50 (second compound 0.1 µM): 24.5 nM
IC50 (second compound 0.316 µM): 28 nM
IC50 (second compound 1 µM): 27.6 nM
IC50 (second compound 3.16 µM): 20.6 nM
IC50 (second compound 10 µM): < 9.49 nM
viability, T/C [1]: 74.4%
viability, T/C [2]: 45%
viability, T/C [3]: 16.9%
viability, T/C [4]: 9.63%
viability, T/C [5]: 6.43%
viability, T/C [6]: 4.54%
viability, T/C [7]: 75.9%
viability, T/C [8]: 48.4%
viability, T/C [9]: 17.9%
viability, T/C [10]: 8.22%
viability, T/C [11]: 6.34%
viability, T/C [12]: 4.71%
viability, T/C [13]: 66%
viability, T/C [14]: 48.9%
viability, T/C [15]: 14.8%
viability, T/C [16]: 9.7%
viability, T/C [17]: 7.19%
viability, T/C [18]: 4.84%
viability, T/C [19]: 69.5%
viability, T/C [20]: 40.7%
viability, T/C [21]: 16.4%
viability, T/C [22]: 8.71%
viability, T/C [23]: 6.1%
viability, T/C [24]: 4.26%
viability, T/C [25]: 46.8%
viability, T/C [26]: 27%
viability, T/C [27]: 11.4%
viability, T/C [28]: 5.55%
viability, T/C [29]: 4.09%
viability, T/C [30]: 3.17%

O=C(C=Cc1cccc(S(=O)(=O)Nc2ccccc2)c1)NO + NC1CCC(NC2CC2c2ccccc2)CC1
IC50 (second compound 0.1 µM): 81.6 nM
IC50 (second compound 0.316 µM): 77.5 nM
IC50 (second compound 1 µM): 67.3 nM
IC50 (second compound 3.16 µM): 61.3 nM
IC50 (second compound 10 µM): 9.78 nM
viability, T/C [1]: 90.7%
viability, T/C [2]: 81.5%
viability, T/C [3]: 44.5%
viability, T/C [4]: 15%
viability, T/C [5]: 2.65%
viability, T/C [6]: 4.46%
viability, T/C [7]: 86.7%
viability, T/C [8]: 73.6%
viability, T/C [9]: 45.1%
viability, T/C [10]: 17%
viability, T/C [11]: 2.84%
viability, T/C [12]: 4.29%
viability, T/C [13]: 74.1%
viability, T/C [14]: 65.7%
viability, T/C [15]: 42.9%
viability, T/C [16]: 18.7%
viability, T/C [17]: 3.4%
viability, T/C [18]: 3.26%
viability, T/C [19]: 68.9%
viability, T/C [20]: 64.4%
viability, T/C [21]: 41%
viability, T/C [22]: 15.4%
viability, T/C [23]: 3.52%
viability, T/C [24]: 3.55%
viability, T/C [25]: 49.8%
viability, T/C [26]: 48.4%
viability, T/C [27]: 36.3%
viability, T/C [28]: 13.8%
viability, T/C [29]: 3.3%
viability, T/C [30]: 2.37%
